Laboratory results taken from ChEMBL document CHEMBL5236620, “Discovery of 2-Amino-7-sulfonyl-7H-pyrrolo[2,3-d]pyrimidine Derivatives as Potent Reversible FGFR Inhibitors with Gatekeeper Mutation Tolerance: Design, Synthesis, and Biological Evaluation” (J Med Chem, 2022).
Calls of active or inactive are those of the source. The rule behind the calls is not given here.

How the values were obtained:
[1] = target: Fibroblast growth factor receptor 4 (Homo sapiens, UniProt P22455)
Description: Inhibition of FGFR4 (unknown origin) using TK as substrate incubated for 1 hr in presence of biotin/ATP by HTRF assay

[2] = in vitro; details: mouse, liver microsomes
Description: Metabolic stability in mouse liver microsomes assessed as half life pretreated for 5 mins followed by NADPH addition and measured for 45 mins by LC/MS analysis

[3] = system: BaF3; assay: Cytotoxicity against mouse BaF3 cells assessed as inhibition of cell growth incubated for 72 hrs by CCK-8 assay; format: functional, cell-based; details: BaF3, 72 h
[4] = in vitro; details: human, liver microsomes
Description: Metabolic stability in human liver microsomes assessed as intrinsic clearance pretreated for 5 mins followed by NADPH addition and measured for 45 mins by LC/MS analysis

[5] = system: BaF3; assay: Cytotoxicity against mouse BaF3 cells expressing TEL-fused FGFR4 V550L mutant assessed as inhibition of cell growth incubated for 72 hrs by CCK-8 assay; format: functional, cell-based; details: BaF3, 72 h
[6] = system: BaF3; assay: Cytotoxicity against mouse BaF3 cells expressing wild type TEL-fused FGFR4 assessed as inhibition of cell growth incubated for 72 hrs by CCK-8 assay; format: functional, cell-based; details: BaF3, 72 h
[7] = in vitro; details: human, liver microsomes; remark: listed apart in the source
Description: Metabolic stability in human liver microsomes assessed as half life pretreated for 5 mins followed by NADPH addition and measured for 45 mins by LC/MS analysis

[8] = in vitro; details: human
Description: Metabolic stability in human assessed as intrinsic clearance

[9] = in vitro; details: mouse, liver microsomes; remark: listed apart in the source
Description: Metabolic stability in mouse liver microsomes assessed as intrinsic clearance pretreated for 5 mins followed by NADPH addition and measured for 45 mins by LC/MS analysis

[10] = system: Huh-7; assay: cells; details: Homo sapiens, Huh-7, 72 h
Description: Cytotoxicity against human Huh-7 cells assessed as inhibition of cell growth incubated for 72 hrs by CellTiter-Glo assay

[11] = in vitro; details: mouse
Description: Metabolic stability in mouse assessed as intrinsic clearance

[12] = target: Janus Kinase (JAK) (Homo sapiens) (UniProt P52333+P23458+O60674+P29597); details: dose 500.0 nM
Description: Inhibition of JAK (unknown origin) at 500 nM

[13] = target: Fibroblast growth factor receptor 4 (Mus musculus) (UniProt Q03142); details: BaF3, dose 50-400 nM, time 4.0 hrs
[14] = target: Fibroblast growth factor receptor 4 (Mus musculus) (UniProt Q03142); details: BaF3, dose 50-400 nM, time 4.0 hrs; remark: listed apart in the source
[15] = target: Fibroblast growth factor receptor 2 (Homo sapiens, UniProt P21802)
Description: Inhibition of FGFR2 (unknown origin) using TK as substrate incubated for 1 hr in presence of biotin/ATP by HTRF assay

[16] = target: Fibroblast growth factor receptor 3 (Homo sapiens, UniProt P22607)
Description: Inhibition of FGFR3 (unknown origin) using TK as substrate incubated for 1 hr in presence of biotin/ATP by HTRF assay

[17] = target: Fibroblast growth factor receptor 4 (Mus musculus) (UniProt Q03142); details: BaF3, dose 50-400 nM, time 4.0 hrs; remark: listed apart in the source

Sequence of Fibroblast growth factor receptor 4 (P22455 whole entry): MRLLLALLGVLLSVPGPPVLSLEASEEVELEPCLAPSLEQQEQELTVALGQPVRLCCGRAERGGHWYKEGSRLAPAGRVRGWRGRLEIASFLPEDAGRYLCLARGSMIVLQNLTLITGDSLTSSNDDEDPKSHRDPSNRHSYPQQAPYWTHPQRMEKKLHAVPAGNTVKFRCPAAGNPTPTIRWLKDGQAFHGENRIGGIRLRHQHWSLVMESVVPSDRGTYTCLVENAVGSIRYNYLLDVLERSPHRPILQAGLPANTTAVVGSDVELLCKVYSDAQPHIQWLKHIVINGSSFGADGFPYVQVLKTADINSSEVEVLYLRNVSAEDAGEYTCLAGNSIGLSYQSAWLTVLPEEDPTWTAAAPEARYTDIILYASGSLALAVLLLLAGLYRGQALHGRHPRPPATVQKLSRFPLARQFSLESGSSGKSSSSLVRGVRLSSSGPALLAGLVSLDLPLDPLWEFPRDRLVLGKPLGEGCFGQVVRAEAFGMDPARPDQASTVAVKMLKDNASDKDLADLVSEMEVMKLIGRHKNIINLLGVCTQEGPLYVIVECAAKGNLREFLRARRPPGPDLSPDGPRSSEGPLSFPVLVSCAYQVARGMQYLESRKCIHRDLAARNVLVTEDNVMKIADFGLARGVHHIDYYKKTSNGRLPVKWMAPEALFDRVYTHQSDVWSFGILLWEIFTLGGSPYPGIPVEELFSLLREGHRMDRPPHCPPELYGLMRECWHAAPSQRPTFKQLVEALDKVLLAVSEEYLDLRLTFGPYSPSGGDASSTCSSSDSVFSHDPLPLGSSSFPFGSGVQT
Sequence of Fibroblast growth factor receptor 4 (Mus musculus) (Q03142 17-799 limits assumed): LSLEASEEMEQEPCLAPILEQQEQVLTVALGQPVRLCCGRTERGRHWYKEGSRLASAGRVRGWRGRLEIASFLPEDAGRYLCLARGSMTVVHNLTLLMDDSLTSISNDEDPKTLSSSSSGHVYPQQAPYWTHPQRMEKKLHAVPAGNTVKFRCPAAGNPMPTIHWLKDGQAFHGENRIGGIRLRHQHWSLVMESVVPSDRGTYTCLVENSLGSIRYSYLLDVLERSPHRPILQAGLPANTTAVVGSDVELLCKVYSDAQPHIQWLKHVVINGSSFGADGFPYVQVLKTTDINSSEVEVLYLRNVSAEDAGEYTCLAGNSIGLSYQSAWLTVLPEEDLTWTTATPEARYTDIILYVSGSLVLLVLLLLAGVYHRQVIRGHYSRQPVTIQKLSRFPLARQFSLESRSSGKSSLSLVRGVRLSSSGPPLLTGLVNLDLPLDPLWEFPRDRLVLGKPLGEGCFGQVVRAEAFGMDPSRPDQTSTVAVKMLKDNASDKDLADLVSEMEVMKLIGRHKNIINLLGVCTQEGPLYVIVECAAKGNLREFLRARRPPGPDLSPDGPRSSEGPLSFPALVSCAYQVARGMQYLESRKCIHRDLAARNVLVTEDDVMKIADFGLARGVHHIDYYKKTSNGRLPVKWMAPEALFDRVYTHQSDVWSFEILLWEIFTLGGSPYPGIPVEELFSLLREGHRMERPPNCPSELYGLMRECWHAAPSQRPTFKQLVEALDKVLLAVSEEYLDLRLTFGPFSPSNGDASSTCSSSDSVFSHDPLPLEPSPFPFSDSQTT
Sequence of Fibroblast growth factor receptor 2 (P21802 whole entry): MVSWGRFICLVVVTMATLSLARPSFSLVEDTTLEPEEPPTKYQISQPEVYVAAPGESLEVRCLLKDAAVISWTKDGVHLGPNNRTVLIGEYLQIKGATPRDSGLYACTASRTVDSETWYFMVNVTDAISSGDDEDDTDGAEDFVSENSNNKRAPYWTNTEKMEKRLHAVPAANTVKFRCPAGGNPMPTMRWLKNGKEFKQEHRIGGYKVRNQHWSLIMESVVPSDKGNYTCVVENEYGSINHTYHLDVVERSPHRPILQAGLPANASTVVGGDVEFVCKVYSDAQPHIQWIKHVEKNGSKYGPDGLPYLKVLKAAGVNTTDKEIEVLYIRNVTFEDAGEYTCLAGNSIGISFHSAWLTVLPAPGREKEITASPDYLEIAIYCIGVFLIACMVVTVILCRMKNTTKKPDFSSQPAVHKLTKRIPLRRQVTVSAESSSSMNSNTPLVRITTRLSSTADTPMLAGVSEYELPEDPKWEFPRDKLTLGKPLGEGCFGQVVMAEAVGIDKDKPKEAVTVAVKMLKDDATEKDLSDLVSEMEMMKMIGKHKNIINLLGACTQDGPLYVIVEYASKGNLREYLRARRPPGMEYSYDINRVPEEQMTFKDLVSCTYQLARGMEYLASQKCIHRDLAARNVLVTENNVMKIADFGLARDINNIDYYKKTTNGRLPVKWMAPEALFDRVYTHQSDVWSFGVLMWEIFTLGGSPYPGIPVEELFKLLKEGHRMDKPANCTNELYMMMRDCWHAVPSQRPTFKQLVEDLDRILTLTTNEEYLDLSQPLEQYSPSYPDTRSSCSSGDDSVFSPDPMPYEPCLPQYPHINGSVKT
Sequence of Fibroblast growth factor receptor 3 (P22607 whole entry): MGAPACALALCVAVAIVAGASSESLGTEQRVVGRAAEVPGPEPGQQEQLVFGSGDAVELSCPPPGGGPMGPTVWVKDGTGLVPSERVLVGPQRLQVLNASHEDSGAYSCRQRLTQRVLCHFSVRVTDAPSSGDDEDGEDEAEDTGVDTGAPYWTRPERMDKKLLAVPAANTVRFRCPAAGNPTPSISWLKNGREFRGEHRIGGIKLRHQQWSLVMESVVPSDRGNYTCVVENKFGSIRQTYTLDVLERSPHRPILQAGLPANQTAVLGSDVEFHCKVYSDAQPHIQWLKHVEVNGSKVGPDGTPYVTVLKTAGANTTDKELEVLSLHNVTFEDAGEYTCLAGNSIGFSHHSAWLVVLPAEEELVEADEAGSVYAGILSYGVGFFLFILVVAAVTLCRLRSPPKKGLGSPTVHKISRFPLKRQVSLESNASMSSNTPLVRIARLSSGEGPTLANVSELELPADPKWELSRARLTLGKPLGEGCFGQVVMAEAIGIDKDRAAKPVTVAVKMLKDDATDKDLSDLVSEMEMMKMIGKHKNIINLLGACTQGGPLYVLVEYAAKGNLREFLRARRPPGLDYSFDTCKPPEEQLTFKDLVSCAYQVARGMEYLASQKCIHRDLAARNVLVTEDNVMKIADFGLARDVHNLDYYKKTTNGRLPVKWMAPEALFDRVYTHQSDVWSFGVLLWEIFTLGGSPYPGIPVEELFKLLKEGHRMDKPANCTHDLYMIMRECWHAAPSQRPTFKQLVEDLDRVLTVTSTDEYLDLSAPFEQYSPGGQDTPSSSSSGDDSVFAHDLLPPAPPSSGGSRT

## COc1cccc(S(=O)(=O)n2ccc3cnc(Nc4ccc(N5CCOCC5)cc4)cc32)c1
[1]
  IC50: 198 nM

## COc1cccc(S(=O)(=O)n2ccc3cnc(Nc4ccc(N5C[C@@H]6C[C@H]5CN6C)cc4)nc32)c1
[1]
  IC50: 47.5 nM
[2]
  half-life at 50 min: 13.1 min
[3]
  IC50: > 2000 nM
[4]
  microsomal CLint at 50 min: 6.4 µL/min/mg
[5]
  IC50: 632 nM
[6]
  IC50: 126 nM
[7]
  half-life at 50 min: 224 min
[8]
  CLint scaled: 6 mL/min/kg
[9]
  microsomal CLint at 50 min: 106 µL/min/mg
[10]
  IC50: 166 nM
[11]
  CLint scaled: 416 mL/min/kg

## COc1cccc(S(=O)(=O)Nc2cc(Nc3ccc(N4CCOCC4)cc3)ncc2C#N)c1
[1]
  IC50: > 10000 nM

## C=CC(=O)N[C@H]1CCOC[C@H]1Nc1ncc2cc(-c3c(Cl)c(OC)cc(OC)c3Cl)ccc2n1 [FISOGATINIB]
[1]
  IC50: 5.3 nM
[10]
  IC50: 45.9 nM

## COc1cc(OC)cc(S(C)(=O)=Nc2cc(Nc3ccc(N4CCOCC4)cc3)ncc2C#N)c1 (stereo not given)
[1]
  IC50: 2190 nM

## CN1CCN(c2ccc(Nc3ncc4ccn(S(=O)(=O)c5cccnc5)c4n3)cc2)CC1
[1]
  IC50: 33 nM
[10]
  IC50: 383 nM

## COc1cccc(S(=O)(=O)n2ccc3cnc(Nc4ccc(N5CCC(N(C)C)CC5)cc4)nc32)c1
[1]
  IC50: 13.9 nM
[10]
  IC50: 310 nM

## COc1cccc(S(=O)(=O)n2ccc3cnc(Nc4ccc(N5CCN(C)CC5)cc4)nc32)c1
[1]
  IC50: 10.4 nM
[2]
  half-life at 50 min: 4.2 min
[3]
  IC50: > 2000 nM
[4]
  microsomal CLint at 50 min: 35.5 µL/min/mg
[5]
  IC50: 534 nM
[6]
  IC50: 71.8 nM
[7]
  half-life at 50 min: 39 min
[8]
  CLint scaled: 32 mL/min/kg
[9]
  microsomal CLint at 50 min: 165 µL/min/mg
[10]
  IC50: 131 nM
[11]
  CLint scaled: 654 mL/min/kg

## COc1cccc(S(=O)(=O)n2ccc3cnc(Nc4ccc(N5CCC(N(C)C)C5)cc4)nc32)c1 (stereo not given)
[1]
  IC50: 41.8 nM
[10]
  IC50: 301 nM

## CN1CCN(c2ccc(Nc3ncc4ccn(S(=O)(=O)c5cccc6c5OCO6)c4n3)cc2)CC1
[1]
  IC50: 29.5 nM
[10]
  IC50: 534 nM

## COc1ccc(Cl)c(S(=O)(=O)n2ccc3cnc(Nc4ccc(N5CCN(C)CC5)cc4)nc32)c1
[1]
  IC50: 29 nM
[10]
  IC50: 298 nM

## CN1CCN(c2ccc(Nc3ncc4ccn(S(=O)(=O)c5ccccc5OC(F)(F)F)c4n3)cc2)CC1
[1]
  IC50: 36.8 nM
[10]
  IC50: 444 nM

## CN1CCN(c2ccc(Nc3ncc4ccn(S(=O)(=O)c5cccc(OC(F)(F)F)c5)c4n3)cc2)CC1
[1]
  IC50: 703 nM

## CN1CCN(c2ccc(Nc3ncc4ccn(S(=O)(=O)C5CCCCC5)c4n3)cc2)CC1
[1]
  IC50: 615 nM

## CN1CCN(c2ccc(Nc3ncc4ccn(S(=O)(=O)c5ccccc5)c4n3)cc2)CC1
[1]
  IC50: 74.7 nM

## COc1ccc(OC)c(S(=O)(=O)n2ccc3cnc(Nc4ccc(N5CCN(C)CC5)cc4)nc32)c1
[1]
  IC50: 8.7 nM
[2]
  half-life at 50 min: 4.9 min
[3]
  IC50: > 2000 nM
[4]
  microsomal CLint at 50 min: 40.5 µL/min/mg
[5]
  IC50: 405 nM
[6]
  IC50: 58.3 nM
[7]
  half-life at 50 min: 47.7 min
[8]
  CLint scaled: 36.5 mL/min/kg
[9]
  microsomal CLint at 50 min: 283 µL/min/mg
[10]
  IC50: 244 nM
[11]
  CLint scaled: 1110 mL/min/kg

## COc1ccccc1S(=O)(=O)n1ccc2cnc(Nc3ccc(N4CCN(C)CC4)cc3)nc21
[1]
  IC50: 16.1 nM
[10]
  IC50: 240 nM

## COc1cccc(S(=O)(=O)n2ccc3cnc(Nc4ccc(N5CCOCC5)cc4)nc32)c1
[1]
  IC50: 114 nM

## COc1cccc(S(=O)(=O)n2ccc3cnc(Nc4ccc(N5C[C@@H](C)N[C@@H](C)C5)cc4)nc32)c1
[1]
  IC50: 17.1 nM
[12]
  inhibition: Active
[13]
  inhibition: Dose-Dependent Effect
[14]
  inhibition: Dose-Dependent Effect
[15]
  IC50: 46.7 nM
[16]
  IC50: 29.6 nM
[17]
  inhibition: Dose-Dependent Effect

## COc1cccc(S(=O)(=O)c2c[nH]c3cnc(Nc4ccc(N5CCOCC5)cc4)nc23)c1
[1]
  IC50: 1970 nM

## CN1CCN(c2ccc(Nc3ncc4ccn(S(=O)(=O)c5cccc(F)c5)c4n3)cc2)CC1
[1]
  IC50: 60.5 nM

## COc1cccc(S(=O)(=O)n2ccc3cnc(Nc4ccc(C(=O)N5CCN(C)CC5)cc4)nc32)c1
[1]
  IC50: 112 nM
[10]
  IC50: 449 nM

## CN1CCN(c2ccc(Nc3ncc4ccn(S(=O)(=O)c5ccccc5Cl)c4n3)cc2)CC1
[1]
  IC50: 33.6 nM
[10]
  IC50: 451 nM

## COc1cccc(S(=O)(=O)n2ccc3cnc(Nc4ccc(N5CCN(C)CC5)cc4)nc32)c1OC
[1]
  IC50: 1340 nM

## COc1cccc(S(=O)(=O)c2cnc3cnc(Nc4ccc(N5CCOCC5)cc4)cn23)c1
[1]
  IC50: 4770 nM

## COc1ccc(S(=O)(=O)n2ccc3cnc(Nc4ccc(N5CCN(C)CC5)cc4)nc32)cc1
[1]
  IC50: 893 nM

## CN1CCN(c2ccc(Nc3ncc4ccn(S(=O)(=O)c5cc(F)cc(F)c5)c4n3)cc2)CC1
[1]
  IC50: 12.7 nM
[2]
  half-life at 50 min: 4.4 min
[3]
  IC50: > 2000 nM
[4]
  microsomal CLint at 50 min: 54.8 µL/min/mg
[5]
  IC50: 376 nM
[6]
  IC50: 64 nM
[7]
  half-life at 50 min: 35.2 min
[8]
  CLint scaled: 49.4 mL/min/kg
[9]
  microsomal CLint at 50 min: 319 µL/min/mg
[10]
  IC50: 191 nM
[11]
  CLint scaled: 1250 mL/min/kg

## COc1cccc(S(=O)(=O)n2ccc3cnc(Nc4ccc(CN5CCN(C)CC5)cc4)nc32)c1
[1]
  IC50: 132 nM

## CN1CCN(c2ccc(Nc3ncc4ccn(S(=O)(=O)c5ccn(C)n5)c4n3)cc2)CC1
[1]
  IC50: 127 nM

## COc1cccc(S(C)(=O)=Nc2cc(Nc3ccc(N4CCOCC4)cc3)ncc2C#N)c1 (stereo not given)
[1]
  IC50: 346 nM

## CN1CCN(c2ccc(Nc3ncc4ccn(S(=O)(=O)c5c(Cl)cccc5Cl)c4n3)cc2)CC1
[1]
  IC50: 55 nM
[10]
  IC50: 377 nM

## COc1cccc(S(=O)(=O)n2ccc3cnc(Nc4ccc(N(C)CCN(C)C)cc4)nc32)c1
[1]
  IC50: 17.1 nM
[10]
  IC50: 811 nM
